This is an account of results in publication PMC9171646 (Proceedings of the National Academy of Sciences of the …, 2022).

Entries after “also recorded” stand apart in the source; their conditions may differ.

Test [1] has as its system EF-G from P. aeruginosa (EF-G1). As to conditions: free P. aeruginosa EF-G1; cited from earlier work.
In test [2] the test system is E. coli EF-G-70S ribosome. In words: Cryo-EM structure of EF-G-ArgB-70S complex. It is filed as binding.
Test [3] has as its system P. aeruginosa EF-G1. As to conditions: cited from earlier work.
Test [4] deals with EF-G-ribosome translocation intermediate (INT2). In words: Presteady-state cryo-EM structure of EF-G-ArgB-INT2 translocation intermediate. It is filed as binding, E. coli.
Test [5] concerns EF-G-bound translocating 70S ribosome. In words: Presteady-state smFRET imaging of translocation. In kind it is biochemical, E. coli. As to conditions: for Final state after prolonged stalling: 400 ms time resolution, extended imaging (Fig. S4A); for Effect on translocation: EF-G(GTP) delivered with 10 µM drug to PRE ribosomes, 25 °C; for Affinity for ribosome-bound EF-G vs EF-G in solution: inferred from smFRET with EF-G in excess.

Test [6] has as its system Pseudomonas aeruginosa. As to conditions: cited from earlier work.
Test [7] deals with EF-G(GDP)-ribosome INT2. As to conditions: cited from earlier work.
Test [8] has as its system EF-G. As to conditions: cited from earlier work.
The subject of test [9] is eEF2. As to conditions: cited from earlier work.

For the molecule argyrin B [ArgB], the “Direct binding to EF-G1, binding site” value in [1] was “bind directly to EF-G from P. aeruginosa (EF-G1) with the binding site located between domains III and V”. The “Binding site on EF-G” value in test [2] (50 µM ArgB, 0.4 µM 70S, 1 µM EF-G, 500 µM GTP) is “between domain III and V of EF-G”. Moreover, the “State in which EF-G is trapped” value in test [2] (nucleotide density compatible with GDP, switch-I disordered) is “traps EF-G on the ribosome after GTP hydrolysis and Pi release”. Also, the “Resistance by mutation of Pro414” value in test [3] (ArgB-resistant strains) is on record as “commonly mutated in ArgB-resistant strains”. Moreover, the “Resistance by Thr671Ala (E. coli Thr668)” value in test [3] (P. aeruginosa EF-G1 domain V) was “resistance to ArgB”. Further, in test [4] (10 µM ArgB, 5 µM EF-G, 1 mM GTP), the “Binding site on EF-G in translocation intermediate” value was “in the junction between EF-G domains III and V”. Also, the “Contacts of ArgB in EF-G binding pocket” value in [4] (EF-G-ArgB-INT2, E. coli numbering) is “van der Waals interactions with Met617, Leu660, and Met682 within domain V of EF-G and the backbone amide of Ala489 of EF-G was positioned within hydrogen bonding distance to the Sarcosine moiety”. For the same molecule, in test [5], the “Final state after prolonged stalling” value is on record as “eventually reached an EF-G-bound drug-stalled POST state after prolonged stalling”, the Effect on translocation result is on record as “prolonged stalls during late steps of translocation” and the “Affinity for ribosome-bound EF-G vs EF-G in solution” value is listed as “preferentially binds with high affinity to EF-G when it is bound to the ribosome; also recorded: lower affinity for EF-G in solution than on the ribosome”. In addition, in test [5] (EF-G in fivefold excess over ArgB (10 µM ArgB, 50 µM EF-G)), the “Inhibition of ribosomes with EF-G in excess” value was “all ribosomes were inhibited”. The “Affinity for ribosome-bound EF-G vs EF-G in solution” value in [5] (listed as Argyrin B) is “low affinity toward EF-G off the ribosome, but high affinity to EF-G bound to the ribosome”. Besides, in test [6], the “Antimicrobial activity against P. aeruginosa” value is reported as “at the forefront”.
Turning to `CC(=O)O[C@H]1C[C@@]2(C)[C@@H](C[C@@H](O)[C@H]3[C@@]4(C)CC[C@@H](O)[C@@H](C)[C@@H]4CC[C@@]32C)/C1=C(\CCC=C(C)C)C(=O)O` [FA, fusidic acid, reference compound], the “Binding site on EF-G” value in [7] was “between domains I and III”. In addition, in test [5], the “Final state after prolonged stalling” value was “eventually reached an EF-G-bound drug-stalled POST state after prolonged stalling” and the Effect on translocation entry is recorded as “prolonged stalls during late steps of translocation”. Also, the “Resistance by EF-G mutations” value in test [8] was “mutations in EF-G have been reported to confer FA resistance”.
On to `CO[C@H]1[C@@H](O)[C@H](O)[C@H](OC[C@@]23C[C@@H]4[C@H](C)CC[C@H]4[C@@]4(C=O)CC2C=C(C(C)C)[C@@]34C(=O)O)O[C@@H]1C` [Sordarin], for which, in test [9], the “Binding site on eEF2” value was “binds between domains III and V of eEF2”.
